Structures are written as SMILES.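 Five compound concentrations were applied to cells in 96-well plates for 48 hours; endpoints were derived by simple linear interpolation of the resulting dose-response curve. TGI: total growth inhibition.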 Bounds are passed on as bounds.

The subject of one experiment is SK-OV-3 ovarian. The experiment is described as follows: NCI tumour cell line growth inhibition, 48 h.
With `C[C@]12CC[C@H](O)CC1=CC[C@@H]1C2CC[C@]2(C)C(=O)N(N)C(=O)CC12` (stereo not given in full), the TGI was more than 100 µM.
On the same count and under the same terms, in the case of `O=C(O)c1cccc2c1/C(=N/Nc1ccccc1)CC2` it was more than 100 µM; in that of `CC1(C)N=C(/C(Cl)=[N+](/[O-])C(=O)c2ccc(F)cc2)C(C)(C)N1O`, 47 µM; in that of `N#CN=C(N(Cc1ccccc1)Cc1ccccc1)N(Cc1ccccc1)Cc1ccccc1`, more than 100 µM.
The compound `[N-]=[N+]=Nc1cc(=O)oc2ccccc12` yielded a TGI of more than 100 µM.
The compound `CCOC(=O)N1CCC2(CC1)C[C@](C)(C(C)=O)C(C)O2` (stereo not given in full) gave a TGI of more than 100 µM.
Compound `CNC(=O)C(C)C1CCC2(C)C=CC(=O)C(C)=C2C1O` (stereo not given) displayed a TGI of more than 100 µM.
Compound `Cc1ccc(SCC(CSCCO)OCn2cnc3c2NC(N)=NC32OCCO2)cc1` (stereo not given) returned a TGI of more than 100 µM.
In turn, `COc1cc([C@@H]2c3cc4c(cc3[C@@H](Nc3ccc([N+](=O)[O-])cc3C(=O)c3ccccc3)[C@H]3COC(=O)[C@H]23)OCO4)cc(OC)c1OC` yielded a TGI of more than 100 µM.
In turn, `CCN(CC)CCC(=O)Nc1ccc2c(c1)C(=O)c1ccc(NC(=O)CCN(CC)CC)cc1C2=O` gave a TGI of 21.7 µM.
Compound `CC(C)CCCCCCCCCCCCC(=O)NCC(=O)NC1C(C)OC(Nc2ncnc3c2ncn3C)C(O)C1O` (stereo not given) gave a TGI of more than 94.6 µM.
`CCCCCCCCCCCOc1ccc(C(=O)C(=O)c2ccc(OCCCCCCCCCCC)c(OCCCCCCCCCCC)c2)cc1OCCCCCCCCCCC` displayed a TGI of more than 100 µM.
In the case of `CC(N)Cc1ccc(C(=O)Cl)cc1` (stereo not given), the TGI was more than 100 µM.
In turn, `CCC1(O)CC2CC(=O)OC2C1O` (stereo not given) displayed a TGI of more than 100 µM.
The same measure, in the same setting: in the case of `Cc1cn(C2CC(N(O)C(N)=O)C(CO)O2)c(=O)[nH]c1=O` (stereo not given) it was more than 100 µM.
In turn, `O=[N+]([O-])/C(C(Cl)=C(Cl)Cl)=C(\SCc1ccccc1)N1CCCCC1` gave a TGI of more than 100 µM.
In the case of `CC1C=C(CCCCCCCCCCCC[C@@H](O)[C@@H]2CC[C@@H]([C@@H]3CC[C@@H](C(O)CCCCCCCCCCCCC4=C[C@H](C)OC4=O)O3)O2)C(=O)O1` (stereo not given in full), the TGI is more than 100 µM.
`O=C1c2ccccc2C2C1N2C(=O)C(F)(F)F` (stereo not given) yielded a TGI of more than 100 µM.
Same read-out and setting: the same measure for `O=C(Cc1cccs1)N[C@@H]1C(=O)N2C(C(=O)OC(c3ccccc3)c3ccccc3)=C(CO)CS[C@H]12`: more than 100 µM; for `COc1ccc2c(=O)c(O)c(-c3ccc(OC)c(OC)c3)oc2c1`: more than 100 µM.
Same read-out and setting: the same measure for `CC(=O)NNc1nc(C)c(C(=O)NNC(=O)C(=O)Nc2c(Cl)cc([N+](=O)[O-])cc2Cl)s1`: more than 100 µM; for `N.N.N.N.O=[N+]([O-])[O-].[Co+3].[N-]=[N+]=[N-].[N-]=[N+]=[N-]`: more than 100 µM.

Another experiment relates to SNB-75 CNS. In words: NCI tumour cell line growth inhibition, 48 h.
In the case of `COc1cc([C@@H]2OCC3C(c4ccc5c(c4)OCO5)OCC32)cc(OC)c1OC` (stereo not given in full), the TGI is more than 100 µM.
On to `O=C1CCC23CC(C=CC=C12)n1c(=O)n(-c2ccccc2)c(=O)n13` (stereo not given), for which the TGI was more than 100 µM.
As for `C[C@]12CC[C@H](O)CC1=CC[C@@H]1C2CC[C@]2(C)C(=O)N(N)C(=O)CC12` (stereo not given in full), the TGI was more than 100 µM.
`CC1(C)N=C(/C(Cl)=[N+](/[O-])C(=O)c2ccc(F)cc2)C(C)(C)N1O` displayed a TGI of 32.7 µM.
`N#CN=C(N(Cc1ccccc1)Cc1ccccc1)N(Cc1ccccc1)Cc1ccccc1` had a TGI of more than 100 µM.
The same measure, in the same setting: the same measure for `[N-]=[N+]=Nc1cc(=O)oc2ccccc12`: more than 100 µM.
`CNC(=O)C(C)C1CCC2(C)C=CC(=O)C(C)=C2C1O` (stereo not given) displayed a TGI of more than 100 µM.
The compound `Cc1ccc(SCC(CSCCO)OCn2cnc3c2NC(N)=NC32OCCO2)cc1` (stereo not given) registered a TGI of more than 100 µM.
`Cc1cccc2c(=O)cc(-c3ccccc3)[nH]c12` yielded a TGI of 9.26 µM.
Consider `COc1cc([C@@H]2c3cc4c(cc3[C@@H](Nc3ccc([N+](=O)[O-])cc3C(=O)c3ccccc3)[C@H]3COC(=O)[C@H]23)OCO4)cc(OC)c1OC`, for which the TGI is more than 100 µM.
Same read-out and setting: in the case of `CCN(CC)CCC(=O)Nc1ccc2c(c1)C(=O)c1ccc(NC(=O)CCN(CC)CC)cc1C2=O` it was 31.9 µM; in that of `CC(C)CCCCCCCCCCCCC(=O)NCC(=O)NC1C(C)OC(Nc2ncnc3c2ncn3C)C(O)C1O` (stereo not given), 27.9 µM; in that of `CCCCCCCCCCCOc1ccc(C(=O)C(=O)c2ccc(OCCCCCCCCCCC)c(OCCCCCCCCCCC)c2)cc1OCCCCCCCCCCC`, 95.7 µM.
For the compound `CC(N)Cc1ccc(C(=O)Cl)cc1` (stereo not given), the TGI was more than 100 µM.
The same measure, in the same setting: the same measure for `CCC1(O)CC2CC(=O)OC2C1O` (stereo not given): more than 100 µM.
Take `COc1nc(N)c(C(=O)CCl)c(=O)n1C`: the TGI was 30.3 µM.
Still for that read-out and setting: in the case of `CC1C=C(CCCCCCCCCCCC[C@@H](O)[C@@H]2CC[C@@H]([C@@H]3CC[C@@H](C(O)CCCCCCCCCCCCC4=C[C@H](C)OC4=O)O3)O2)C(=O)O1` (stereo not given in full) it was more than 100 µM.
Regarding `O=C1c2ccccc2C2C1N2C(=O)C(F)(F)F` (stereo not given), the TGI was more than 100 µM.
On to `N.N.N.N.O=[N+]([O-])[O-].[Co+3].[N-]=[N+]=[N-].[N-]=[N+]=[N-]`, for which the TGI was more than 100 µM.

For another experiment, the system named is UO-31 renal. The experiment is described as follows: NCI tumour cell line growth inhibition, 48 h.
Take `COc1cc([C@@H]2OCC3C(c4ccc5c(c4)OCO5)OCC32)cc(OC)c1OC` (stereo not given in full): the TGI is more than 100 µM.
`O=C1CCC23CC(C=CC=C12)n1c(=O)n(-c2ccccc2)c(=O)n13` (stereo not given) yielded a TGI of more than 100 µM.
In turn, `C[C@]12CC[C@H](O)CC1=CC[C@@H]1C2CC[C@]2(C)C(=O)N(N)C(=O)CC12` (stereo not given in full) showed a TGI of more than 100 µM.
Compound `O=C(O)c1cccc2c1/C(=N/Nc1ccccc1)CC2` gave a TGI of more than 100 µM.
The same measure, in the same setting: the same measure for `CC1(C)N=C(/C(Cl)=[N+](/[O-])C(=O)c2ccc(F)cc2)C(C)(C)N1O`: 37.9 µM.
`N#CN=C(N(Cc1ccccc1)Cc1ccccc1)N(Cc1ccccc1)Cc1ccccc1` yielded a TGI of more than 100 µM.
For the compound `[N-]=[N+]=Nc1cc(=O)oc2ccccc12`, the TGI was more than 100 µM.
Take `CCOC(=O)N1CCC2(CC1)C[C@](C)(C(C)=O)C(C)O2` (stereo not given in full): the TGI was more than 100 µM.
The same measure, in the same setting: in the case of `CNC(=O)C(C)C1CCC2(C)C=CC(=O)C(C)=C2C1O` (stereo not given) it was more than 68.3 µM; in that of `Cc1ccc(SCC(CSCCO)OCn2cnc3c2NC(N)=NC32OCCO2)cc1` (stereo not given), more than 100 µM; in that of `Cc1cccc2c(=O)cc(-c3ccccc3)[nH]c12`, more than 100 µM.
In turn, `CCN(CC)CCC(=O)Nc1ccc2c(c1)C(=O)c1ccc(NC(=O)CCN(CC)CC)cc1C2=O` displayed a TGI of more than 100 µM.
In the case of `CC(C)CCCCCCCCCCCCC(=O)NCC(=O)NC1C(C)OC(Nc2ncnc3c2ncn3C)C(O)C1O` (stereo not given), the TGI is 16.9 µM.
Same read-out and setting: in the case of `CCCCCCCCCCCOc1ccc(C(=O)C(=O)c2ccc(OCCCCCCCCCCC)c(OCCCCCCCCCCC)c2)cc1OCCCCCCCCCCC` it was more than 100 µM; in that of `CCC1(O)CC2CC(=O)OC2C1O` (stereo not given), more than 100 µM; in that of `Cc1cn(C2CC(N(O)C(N)=O)C(CO)O2)c(=O)[nH]c1=O` (stereo not given), more than 100 µM.
Take `O=[N+]([O-])/C(C(Cl)=C(Cl)Cl)=C(\SCc1ccccc1)N1CCCCC1`: the TGI is 56.5 µM.
In the case of `COc1nc(N)c(C(=O)CCl)c(=O)n1C`, the TGI was determined as 67 µM.
In turn, `CC1C=C(CCCCCCCCCCCC[C@@H](O)[C@@H]2CC[C@@H]([C@@H]3CC[C@@H](C(O)CCCCCCCCCCCCC4=C[C@H](C)OC4=O)O3)O2)C(=O)O1` (stereo not given in full) returned a TGI of more than 100 µM.
For `O=C1c2ccccc2C2C1N2C(=O)C(F)(F)F` (stereo not given), the TGI is more than 100 µM.
For the compound `O=C(Cc1cccs1)N[C@@H]1C(=O)N2C(C(=O)OC(c3ccccc3)c3ccccc3)=C(CO)CS[C@H]12`, the TGI is more than 100 µM.
`COc1ccc2c(=O)c(O)c(-c3ccc(OC)c(OC)c3)oc2c1` displayed a TGI of more than 100 µM.
The compound `CC(=O)NNc1nc(C)c(C(=O)NNC(=O)C(=O)Nc2c(Cl)cc([N+](=O)[O-])cc2Cl)s1` gave a TGI of 87.1 µM.
On to `N.N.N.N.O=[N+]([O-])[O-].[Co+3].[N-]=[N+]=[N-].[N-]=[N+]=[N-]`, for which the TGI was more than 100 µM.

The record behind these values is PubChem BioAssay (NCI).
